In patent publication US20260152533A1, “COMBINATION INHIBITORS FOR TREATING FIBROSIS” (Memorial Sloan-Kettering Cancer Center, priority 2021, published 2026):

System: mammary fibroblasts (MFBs)
Experiment: Western blot of MFBs
Type: cell-based, mouse
Conditions: TGFβ
Excerpt: NIH-3T3 cells were obtained from ATCC (CRL-1658); 293 T cells were obtained from ATCC (CRL-3216). PSCs were isolated from C57BL/6 mice by differential centrifugation as previously described^49 and their mesenchymal origin was validated by analyzing the expression of various mesenchymal and epithelial markers. MFBs were isolated from FVB/N mice by differential centrifugation as previously described^50. DB7 mouse breast cancer cells were obtained from Alexander Borowsky (University of California Davis Comprehensive Cancer Center, Sacramento, CA, USA) through an MTA to Ohio State University (OSU). KPC (Kras^LSL-G12D; Trp53^LSL-R172H; Pdx1-Cre) mouse PDAC cells were a gift from Scott Lowe (Memorial Sloan Kettering Cancer Center. (MSKCC)). […]
Lysates were generated by incubating cells or ground tumors in RIPA buffer (Millipore); […] of cleared lysate were analyzed by SDS-polyacrylamide gel electrophoresis (SDS-PAGE) as previously described^11. […] Quantification of band intensities of collagen I relative to […] or vinculin in tumor allograft experiments was performed with Image Lab software v6.0 (Bio-Rad).

Substance: TGFβ: transforming growth-factor beta; TGFβ-1 purchased from Peprotech
- collagen I production (20% Gln, 48 hours): unable to proliferate and produce collagen I
- GCN2 phosphorylation (low Gln (20%), 48 hours (FIG. 8K)): showed GCN2 phosphorylation
